Read-outs that look alike come from different tables or passages of the source.
What was measured:
[1] = target: BoNT A (Clostridium botulinum, UniProt P0DPI0); experiment: biochemical
[2] = target: lethal factor (LF) (Bacillus anthracis, UniProt P15917); experiment: biochemical; assay type: biochemical
Sequence of lethal factor (LF) (P15917 34-809 limits assumed): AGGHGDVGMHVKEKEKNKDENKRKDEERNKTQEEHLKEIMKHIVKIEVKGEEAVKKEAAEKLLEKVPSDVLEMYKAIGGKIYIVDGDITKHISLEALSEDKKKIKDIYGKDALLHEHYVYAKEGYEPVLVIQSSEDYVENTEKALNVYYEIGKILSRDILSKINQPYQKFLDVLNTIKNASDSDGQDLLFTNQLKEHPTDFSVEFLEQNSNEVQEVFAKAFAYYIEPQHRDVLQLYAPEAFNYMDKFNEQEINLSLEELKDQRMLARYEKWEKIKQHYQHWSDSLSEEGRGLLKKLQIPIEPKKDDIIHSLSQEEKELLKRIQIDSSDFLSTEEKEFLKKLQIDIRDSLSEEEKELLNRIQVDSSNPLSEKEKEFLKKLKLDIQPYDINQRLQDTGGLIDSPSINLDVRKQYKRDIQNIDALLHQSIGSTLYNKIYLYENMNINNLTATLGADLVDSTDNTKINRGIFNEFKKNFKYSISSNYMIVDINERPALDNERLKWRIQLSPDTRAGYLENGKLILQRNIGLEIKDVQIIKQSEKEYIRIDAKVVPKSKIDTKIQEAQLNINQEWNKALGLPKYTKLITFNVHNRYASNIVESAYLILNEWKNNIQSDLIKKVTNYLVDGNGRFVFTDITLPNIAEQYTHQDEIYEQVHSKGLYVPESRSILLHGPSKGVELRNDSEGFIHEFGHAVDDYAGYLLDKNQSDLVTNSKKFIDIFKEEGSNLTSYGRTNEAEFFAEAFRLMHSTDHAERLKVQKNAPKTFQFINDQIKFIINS

Sequence of BoNT A (P0DPI0 whole entry, looked up): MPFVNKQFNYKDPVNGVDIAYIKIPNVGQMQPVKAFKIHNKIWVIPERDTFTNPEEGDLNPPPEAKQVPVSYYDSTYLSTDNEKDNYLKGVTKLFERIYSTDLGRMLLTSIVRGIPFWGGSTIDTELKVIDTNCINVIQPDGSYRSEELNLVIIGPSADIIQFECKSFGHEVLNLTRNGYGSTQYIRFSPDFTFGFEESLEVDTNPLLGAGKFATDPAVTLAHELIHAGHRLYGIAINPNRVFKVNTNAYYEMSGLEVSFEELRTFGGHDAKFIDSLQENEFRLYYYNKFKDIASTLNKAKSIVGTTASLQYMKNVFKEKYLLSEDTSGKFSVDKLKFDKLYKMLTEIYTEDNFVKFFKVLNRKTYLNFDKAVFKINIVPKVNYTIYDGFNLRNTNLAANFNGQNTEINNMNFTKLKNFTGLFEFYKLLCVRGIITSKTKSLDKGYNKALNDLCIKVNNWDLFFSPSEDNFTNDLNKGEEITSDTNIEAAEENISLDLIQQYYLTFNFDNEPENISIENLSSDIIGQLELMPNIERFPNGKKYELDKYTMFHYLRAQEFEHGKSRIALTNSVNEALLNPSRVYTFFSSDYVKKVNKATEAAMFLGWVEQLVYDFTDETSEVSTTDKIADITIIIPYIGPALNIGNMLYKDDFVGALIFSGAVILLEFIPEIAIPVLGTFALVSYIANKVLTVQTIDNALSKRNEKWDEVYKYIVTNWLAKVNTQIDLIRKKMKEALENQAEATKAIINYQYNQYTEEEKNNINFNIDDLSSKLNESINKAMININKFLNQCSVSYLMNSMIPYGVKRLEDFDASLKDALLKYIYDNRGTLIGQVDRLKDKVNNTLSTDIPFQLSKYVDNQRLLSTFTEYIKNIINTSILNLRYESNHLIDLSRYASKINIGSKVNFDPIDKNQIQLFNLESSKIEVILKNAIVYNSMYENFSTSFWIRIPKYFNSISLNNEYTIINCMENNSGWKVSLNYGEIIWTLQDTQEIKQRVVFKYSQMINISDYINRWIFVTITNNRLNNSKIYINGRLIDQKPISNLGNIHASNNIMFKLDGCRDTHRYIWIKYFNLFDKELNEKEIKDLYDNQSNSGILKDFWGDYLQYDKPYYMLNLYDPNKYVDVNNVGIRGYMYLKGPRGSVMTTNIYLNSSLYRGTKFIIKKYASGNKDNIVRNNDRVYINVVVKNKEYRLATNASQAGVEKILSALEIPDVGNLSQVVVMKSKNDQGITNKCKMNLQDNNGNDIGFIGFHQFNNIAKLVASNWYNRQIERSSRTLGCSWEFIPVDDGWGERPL

Row | SMILES | IC50 [1] | IC50 ([2]; pH 7.4, read-out: LF IC50) | also measured
1 | CN(CCOc1ccc(CC2SC(=O)NC2=O)cc1)c1ccccn1 (centres unmarked) [Compound 2, 5-(4-(2-(methyl(pyridin-2-yl)amino)ethoxy)benzyl)thiazolidine-2,4-dione, reference compound] | – | – | inhibition of BoNT A, kinetic assay (in words) [1]: did not appreciably inhibit; inhibition of LF, kinetic assay (in words) [2]: did not appreciably inhibit
2 | O=C(O)CN1C(=O)/C(=C/c2ccc(-c3ccc([N+](=O)[O-])cc3Cl)o2)SC1=S [Compound 4] | 11.8 µM | 2.1 µM | –
3 | O=C1/C(=C/c2ccc(-c3cc(Cl)ccc3Cl)o2)SC(=S)N1CC1CCCO1 (centres unmarked) [Compound 16, (Z)-5-((5-(2,5-dichlorophenyl)furan-2-yl)methylene)-3-((tetrahydrofuran-2-yl)methyl)-2-thioxothiazolidin-4-one] | > 50 µM | – | –
4 | O=C(O)CN1C(=O)/C(=C/c2c[nH]nc2-c2ccc(C(F)(F)F)cc2)SC1=S [Compound 27, (Z)-2-(4-oxo-2-thioxo-5-((3-(4-(trifluoromethyl)phenyl)-1H-pyrazol-4-yl)methylene)thiazolidin-3-yl)acetic acid] | > 200 µM | – | IC50 [2]: 24.6 µM
5 | O=C(O)CN1C(=O)/C(=C/c2cn(-c3ccccc3)nc2-c2ccccc2)SC1=S [Compound 30, (Z)-2-(5-((1,3-diphenyl-1H-pyrazol-4-yl)methylene)-4-oxo-2-thioxothiazolidin-3-yl)acetic acid] | 111 µM | 6.25 µM | –
6 | O=C1/C(=C/c2ccc(-c3ccc(Cl)c(Cl)c3)o2)SC(=S)N1CCS(=O)(=O)O [Compound 11, (Z)-2-(5-((5-(3,4-dichlorophenyl)furan-2-yl)methylene)-4-oxo-2-thioxothiazolidin-3-yl)ethanesulfonic acid] | 11.1 µM | 1.78 µM | –
7 | O=C(O)CN1C(=O)/C(=C/c2cc(-c3ccc(Cl)cc3)[nH]n2)SC1=S [Compound 28] | > 200 µM | – | IC50 [2]: > 100 µM
8 | O=C(O)CN1C(=O)/C(=C/c2ccc(-c3ccccc3)cc2)SC1=S [Compound 49, (Z)-2-(5-(4-phenylbenzylidene)-4-oxo-2-thioxothiazolidin-3-yl)acetic acid] | 54.6 µM | 6.2 µM | –
9 | CN1CCCN(c2ccc(/C=C3\SC(=S)N(CC(=O)O)C3=O)cc2)CC1 [Compound 51] | > 50 µM | – | –
10 | O=C1/C(=C/c2cn(-c3ccccc3)nc2-c2ccc(Cl)cc2)SC(=S)N1C1CCS(=O)(=O)C1 (centres unmarked) [Compound 45, 5-[1-[3-(4-Chloro-phenyl)-1-phenyl-1H-pyrazol-4-yl]-meth-(Z)-ylidene]-3-(1,1-dioxo-tetrahydro-thiophen-3-yl)-2-thioxo-thiazolidin-4-one] | > 200 µM | – | –
11 | O=C(O)CN1C(=O)/C(=C/c2cccc(Br)n2)SC1=S [Compound 56, (Z)-2-(5-((6-bromopyridin-2-yl)methylene)-4-oxo-2-thioxothiazolidin-3-yl)acetic acid] | > 200 µM | 58 µM | –
12 | O=C(O)CC(C(=O)O)N1C(=O)/C(=C/c2ccc(-c3ccc(Br)cc3)o2)SC1=S (centres unmarked) [Compound 5] | 51.6 µM | 3.98 µM | –
13 | O=C(O)CN1C(=O)/C(=C/c2c[nH]c3ccc(Br)cc23)SC1=S [Compound 61, (Z)-2-(5-((5-bromo-1H-indol-3-yl)methylene)-4-oxo-2-thioxothiazolidin-3-yl)acetic acid] | > 200 µM | 7.04 µM | –
14 | O=C(O)CN1C(=O)/C(=C/c2csc3ccccc23)SC1=S [Compound 57, (Z)-2-(5-(benzo[b]thiophen-3-ylmethylene)-4-oxo-2-thioxothiazolidin-3-yl)acetic acid] | > 200 µM | 13 µM | –
15 | O=C1/C(=C/c2ccc(-c3ccc(Cl)cc3)o2)SC(=S)N1CCS(=O)(=O)O [Compound 12, (Z)-2-(5-((5-(4-chlorophenyl)furan-2-yl)methylene)-4-oxo-2-thioxothiazolidin-3-yl)ethanesulfonic acid] | > 200 µM | – | –
16 | O=C1/C(=C/c2ccc(-c3cccc(Cl)c3)o2)SC(=S)N1CCS(=O)(=O)O [Compound 10, (Z)-2-(5-((5-(3-chlorophenyl)furan-2-yl)methylene)-4-oxo-2-thioxothiazolidin-3-yl)ethanesulfonic acid] | 19.9 µM | 1.7 µM | –
17 | O=C(O)CN1C(=O)/C(=C/c2cn(-c3ccccc3)nc2-c2cccs2)SC1=S [Compound 29, (Z)-2-(4-oxo-5-((1-phenyl-3-(thiophen-2-yl)-1H-pyrazol-4-yl)methylene)-2-thioxothiazolidin-3-yl)acetic acid] | 160 µM | 3.07 µM | –
18 | O=C(O)CN1C(=O)/C(=C/c2cccc3c2oc2ccccc23)SC1=S [Compound 55, (Z)-2-(5-(dibenzofuran-6-ylmethylene)-4-oxo-2-thioxothiazolidin-3-yl)acetic acid] | 160 µM | 2.96 µM | –
19 | CCOc1ccc(-c2nn(-c3ccccc3)cc2/C=C2\SC(=S)N(CC(=O)O)C2=O)cc1F [Compound 46, (Z)-2-(5-((3-(4-ethoxy-3-fluorophenyl)-1-phenyl-1H-pyrazol-4-yl)methylene)-4-oxo-2-thioxothiazolidin-3-yl)acetic acid] | > 200 µM | 3.45 µM | –

Row | SMILES | IC50 [1] | IC50 ([2]; pH 7.4, read-out: LF IC50) | also measured
20 | O=C(O)CN1C(=O)/C(=C/c2cccc(-n3cccn3)c2)SC1=S [Compound 52, (Z)-2-(5-(3-(1H-pyrazol-1-yl)benzylidene)-4-oxo-2-thioxothiazolidin-3-yl)acetic acid] | > 200 µM | 27.9 µM | –
21 | CC(C)(C)OC(=O)N1CCC(c2nc(/C=C3\SC(=S)N(CC(=O)O)C3=O)cs2)CC1 [Compound 18, (Z)-2-(5-((2-(1-(tert-butoxycarbonyl)piperidin-4-yl)thiazol-4-yl)methylene)-4-oxo-2-thioxothiazolidin-3-yl)acetic acid] | 176 µM | 20 µM | –
22 | O=C1/C(=C/c2cn(-c3ccccc3)nc2-c2ccc(S(=O)(=O)N3CCCCC3)cc2)SC(=S)N1CCS(=O)(=O)O [Compound 43, (Z)-2-(4-oxo-5-((1-phenyl-3-(4-(piperidin-1-ylsulfonyl)phenyl)-1H-pyrazol-4-yl)methylene)-2-thioxothiazolidin-3-yl)ethanesulfonic acid] | 20.1 µM | 2.07 µM | –
23 | O=C(O)CCC(C(=O)O)N1C(=O)/C(=C/c2ccc(-c3ccc([N+](=O)[O-])cc3)o2)SC1=S (centres unmarked) [Compound 6] | 148 µM | 4.91 µM | –
24 | O=C(O)CN1C(=O)/C(=C/c2cn(-c3ccccc3)nc2-c2ccc(S(=O)(=O)N3CCOCC3)cc2)SC1=S [Compound 31] | > 200 µM | 4.26 µM | –
25 | O=C(O)CN1C(=O)/C(=C/c2c[nH]c3ccccc23)SC1=S [Compound 60, (Z)-2-(5-((1H-indol-3-yl)methylene)-4-oxo-2-thioxothiazolidin-3-yl)acetic acid] | > 200 µM | 38.7 µM | –
26 | Cc1nc(/C=C2\SC(=S)N(CC(=O)O)C2=O)c(C)o1 [Compound 17, (Z)-2-(5-((2,5-dimethyloxazol-4-yl)methylene)-4-oxo-2-thioxothiazolidin-3-yl)acetic acid] | > 200 µM | 100 µM | –
27 | CCOc1ccc(-c2nn(-c3ccccc3)cc2/C=C2\SC(=S)N(CC(=O)O)C2=O)c(C)c1 [Compound 37, (Z)-2-(5-((3-(4-ethoxy-2-methylphenyl)-1-phenyl-1H-pyrazol-4-yl)methylene)-4-oxo-2-thioxothiazolidin-3-yl)acetic acid] | 130 µM | 4.87 µM | –
28 | O=C1/C(=C/c2cn(-c3ccccc3)nc2-c2ccccc2)SC(=S)N1C1CCS(=O)(=O)C1 (centres unmarked) [Compound 44, 3-(1,1-Dioxo-tetrahydro-thiophen-3-yl)-5-[1-(1,3-diphenyl-1H-pyrazol-4-yl)-meth-(Z)-ylidene]-2-thioxo-thiazolidin-4-one] | > 200 µM | – | –
29 | O=C1/C(=C/c2ccc(-c3cccc([N+](=O)[O-])c3)o2)SC(=S)N1CCS(=O)(=O)O [Compound 9, (Z)-2-(5-((5-(3-nitrophenyl)furan-2-yl)methylene)-4-oxo-2-thioxothiazolidin-3-yl)ethanesulfonic acid] | – | 1.09 µM | Ki [2]: 0.1 µM
30 | COc1ccc(-c2nn(-c3ccccc3)cc2/C=C2\SC(=S)N(CC(=O)O)C2=O)cc1C [Compound 36, (Z)-2-(5-((3-(4-methoxy-3-methylphenyl)-1-phenyl-1H-pyrazol-4-yl)methylene)-4-oxo-2-thioxothiazolidin-3-yl)acetic acid] | 127 µM | 3.58 µM | –
31 | O=C(O)CN1C(=O)/C(=C/c2cccc(N3CCCC3)c2)SC1=S [Compound 50, (Z)-2-(5-(3-(pyrrolidin-1-yl)benzylidene)-4-oxo-2-thioxothiazolidin-3-yl)acetic acid] | > 200 µM | 28.1 µM | –
32 | O=C(O)C(c1ccccc1)N1C(=O)/C(=C/c2ccc(-c3cccc(Cl)c3)o2)SC1=S (centres unmarked) [Compound 8] | 127 µM | 4.34 µM | –
33 | O=C(O)CN1C(=O)/C(=C/c2cc3nccnc3s2)SC1=S [Compound 59] | > 200 µM | 24.9 µM | –
34 | O=C1/C(=C/c2ccc(-c3cccc(Cl)c3Cl)o2)SC(=S)N1C1CCS(=O)(=O)C1 (centres unmarked) [Compound 14, (5Z)-5-{[5-(2,3-dichlorophenyl)-2-furyl]methylene}-3-(1,1-dioxidotetrahydrothien-3-yl)-2-thioxo-1,3-thiazolidin-4-one] | > 200 µM | – | –
35 | O=C(O)CN1C(=O)/C(=C/c2ccc3c(c2)OCO3)SC1=S [Compound 53, (Z)-2-(5-(benzo[d][1,3]dioxol-5-ylmethylene)-4-oxo-2-thioxothiazolidin-3-yl)acetic acid] | > 200 µM | 83.3 µM | –
36 | Cc1nc(-c2ccccc2)c(/C=C2\SC(=S)N(CC(=O)O)C2=O)s1 [Compound 19, (Z)-2-(5-((2-methyl-4-phenylthiazol-5-yl)methylene)-4-oxo-2-thioxothiazolidin-3-yl)acetic acid] | > 200 µM | 41 µM | –
37 | O=C1/C(=C/c2cn(-c3ccccc3)nc2-c2ccc(S(=O)(=O)N3CCOCC3)cc2)SC(=S)N1CCS(=O)(=O)O [Compound 42, (Z)-2-(5-((3-(4-(morpholinosulfonyl)phenyl)-1-phenyl-1H-pyrazol-4-yl)methylene)-4-oxo-2-thioxothiazolidin-3-yl)ethanesulfonic acid] | 85 µM | 1.86 µM | –
38 | O=C(O)C(c1ccccc1)N1C(=O)/C(=C/c2ccc(-c3ccc(Cl)cc3Cl)o2)SC1=S (centres unmarked) [Compound 13] | > 200 µM | 1.2 µM | Ki [2]: 1 µM
